Results as given in patent publication US20140329863A1 (priority 2011, published 2014).
Like-named read-outs stand apart in the source and are kept apart here.

Assays:
[1] = system: PrP^Sc in dividing ScN2a-cl3 cells; format: cell-based, mouse; conditions: for Inhibition of Baseline PrP^5c (%) Dividing Cells ELISA: SPC assay
[2] = system: PrP^Sc in nondividing ScN2a-cl3 cells; format: cell-based, mouse; conditions: SPC assay, nondividing cells
[3] = read-out: Potency (μM) ELISA (EC50), FDA-approved drugs, ScN2a-c13 assay, dividing cells
[4] = FDA-approved drugs, ScN2a-c13 assay, dividing cells, read-out: Potency (μM) ELISA (EC50)
[5] = Table 29, 2-AMT analogs tested for potency, usually n = 3 or more

CC(=O)c1ccc2c(c1)N(CCCN(C)C)c1ccccc1S2 [Acepromazine]
Potency (μM) Cell Viability (N2a-cl3 cells; mouse): >10 µM
EC50 [1, 3]: 6.93 µM

CCCCc1oc2ccccc2c1C(=O)c1cc(I)c(OCCN(CC)CC)c(I)c1 [Amiodarone]
Potency (μM) Cell Viability (N2a-cl3 cells; mouse): >10 µM

CN1CCc2cccc3c2[C@H]1Cc1ccc(O)c(O)c1-3 [Apomorphine]
EC50 [1, 3]: > 10 µM

COc1ccccc1OCCNCC(O)COc1cccc2[nH]c3ccccc3c12 (stereo not drawn) [Carvedilol]
Potency (μM) Cell Viability (N2a-cl3 cells; mouse): 6.096 µM
EC50 [1, 3]: 2.28 µM

Nc1c(/N=N/c2ccc(-c3ccc(/N=N/c4cc(S(=O)(=O)O)c5ccccc5c4N)cc3)cc2)cc(S(=O)(=O)O)c2ccccc12 [Congo Red]
Potency (μM) Cell Viability (N2a-cl3 cells; mouse): >10 µM
EC50 [1, 3]: 0.452 µM

CN1C[C@H](C(=O)N[C@]2(C)O[C@@]3(O)[C@@H]4CCCN4C(=O)[C@H](Cc4ccccc4)N3C2=O)C[C@@H]2c3cccc4[nH]cc(c34)C[C@H]21 [Dihydroergotamine]
Potency (μM) Cell Viability (N2a-cl3 cells; mouse): >10 µM
EC50 [1, 3]: 6.44 µM

CCOc1ccc(/N=N/c2ccc(N)cc2N)cc1 [Ethoxazine]
Potency (μM) Cell Viability (N2a-cl3 cells): >10 µM
EC50 [1, 4]: 4.76 µM

Cc1cccc(Nc2nc(-c3ccncc3)cs2)n1 [IND7, (6-Methyl-pyridin-2-yl)-(4-pyridin-4-yl-thiazol-2-yl)-amine]
EC50 ([1]; AMT analogs tested for potency): 1 µM
EC50 [1, 5]: 1 µM

Cc1ccc(Nc2nc(-c3ccncc3)cs2)nc1 [IND29, (5-Methyl-pyridin-2-yl)-(4-pyridin-4-yl-thiazol-2-yl)-amine]
EC50 ([1]; AMT analogs tested for potency): 1.57 µM
EC50 [1, 5]: 1.57 µM

Cc1ccc(Nc2nc(-c3c(-c4ccccc4)noc3C)cs2)nc1 [IND36, [4-(5-Methyl-3-phenyl-isoxazol-4-yl)-thiazol-2-yl]-(5-methyl-pyridin-2-yl)-amine]
EC50 ([1]; AMT analogs tested for potency): > 32 µM
EC50 [1, 5]: > 32 µM

COc1ccc(-c2csc(Nc3cc(C)ccn3)n2)cc1OC [IND42, [4-(3,4-Dimethoxy-phenyl)-thiazol-2-yl]-(4-methyl-pyridin-2-yl)-amine]
EC50 ([1]; AMT analogs tested for potency): 1 µM
EC50 [1, 5]: 1 µM

COc1ccc(-c2csc(Nc3ccc(C(F)(F)F)cn3)n2)cc1OC [IND43, [4-(3,4-Dimethoxy-phenyl)-thiazol-2-yl]-(5-trifluoromethyl-pyridin-2-yl)-amine]
EC50 ([1]; AMT analogs tested for potency): 2.53 µM
EC50 [1, 5]: 2.53 µM

Cc1ccnc(Nc2nc(-c3cc(-c4ccc(Cl)cc4)no3)cs2)c1 [IND64, {4-[3-(4-Chloro-phenyl)-isoxazol-5-yl]-thiazol-2-yl}-(4-methyl-pyridin-2-yl)-amine]
EC50 ([1]; AMT analogs tested for potency): 0.85 µM
EC50 [1, 5]: 0.85 µM

Cc1ccc(Nc2nc(-c3ccc(-c4ccccn4)s3)cs2)nc1 [IND76, (5-Methyl-pyridin-2-yl)-[4-(5-pyridin-2-yl-thiophen-2-yl)-thiazol-2-yl]-amine]
EC50 ([1]; AMT analogs tested for potency): 1.23 µM
EC50 [1, 5]: 1.23 µM

COc1ccc(-c2csc(Nc3cnccn3)n2)cc1OC [IND82, [4-(3,4-Dimethoxy-phenyl)-thiazol-2-yl]-pyrazin-2-yl-amine]
EC50 ([1]; AMT analogs tested for potency): 15.6 µM
EC50 [1, 5]: 15.6 µM

COc1ccc(-c2csc(Nc3cc4ccccc4cn3)n2)cc1 [IND86, Isoquinolin-3-yl-[4-(4-methoxy-phenyl)-thiazol-2-yl]-amine]
EC50 ([1]; AMT analogs tested for potency): 0.342 µM
EC50 [1, 5]: 0.342 µM

COc1ccc(-c2csc(Nc3ccccn3)n2)cc1OC [IND135, [4-(3,4-Dimethoxy-phenyl)-thiazol-2-yl]-pyridin-2-yl-amine]
EC50 ([1]; AMT analogs tested for potency): 1.23 µM

CCN1CCN(c2ccc(Nc3ccnc4cc5ccccc5cc34)cc2)CC1 [IND-2118]
Inhibition of Baseline PrP^5c (%) Non-dividing Cells ELISA [2]: 51%
Dividing Cells V (cell viability percentages) (N2a-cl3 cells): 25%
Non-dividing Cells V (cell viability percentages) (N2a-cl3 cells): 24%
Inhibition of Baseline PrP^5c (%) Dividing Cells ELISA ([1]; dividing cells): 76%

Cc1ccc2[nH]c3c(c2c1)CCCC3NCC12CC3CC(CC(C3)C1)C2 (stereo not drawn) [IND-4176]
Inhibition of Baseline PrP^5c (%) Non-dividing Cells ELISA [2]: 53%
Dividing Cells V (cell viability percentages) (N2a-cl3 cells): 9%
Inhibition of Baseline PrP^5c (%) Dividing Cells ELISA ([1]; dividing cells): 98%

Cc1ccc2[nH]c3c(c2c1)CCCC3NC1CCCCC1 (stereo not drawn) [IND-5381]
Inhibition of Baseline PrP^5c (%) Non-dividing Cells ELISA [2]: 48%
Dividing Cells V (cell viability percentages) (N2a-cl3 cells): 12%
Non-dividing Cells V (cell viability percentages) (N2a-cl3 cells): 16%
Inhibition of Baseline PrP^5c (%) Dividing Cells ELISA ([1]; dividing cells): 27%

O=C(Nc1ccc(Cl)cc1)Nc1cc(Cl)cc(Cl)c1 [IND-5942]
Inhibition of Baseline PrP^5c (%) Non-dividing Cells ELISA [2]: 51%
Dividing Cells V (cell viability percentages) (N2a-cl3 cells): 3%
Non-dividing Cells V (cell viability percentages) (N2a-cl3 cells): 8%
Inhibition of Baseline PrP^5c (%) Dividing Cells ELISA ([1]; dividing cells): 91%

CC(=O)c1ccc(N2CCN(Cc3cccc(Br)c3)CC2)cc1 [IND-7046]
Inhibition of Baseline PrP^5c (%) Non-dividing Cells ELISA [2]: 39%
Dividing Cells V (cell viability percentages) (N2a-cl3 cells): 14%
Non-dividing Cells V (cell viability percentages) (N2a-cl3 cells): 2%
Inhibition of Baseline PrP^5c (%) Dividing Cells ELISA ([1]; dividing cells): 67%

CC(=O)c1ccc(N2CCN(Cc3ccc(Br)s3)CC2)cc1 [IND-7190]
Inhibition of Baseline PrP^5c (%) Non-dividing Cells ELISA [2]: 34%
Dividing Cells V (cell viability percentages) (N2a-cl3 cells): 8%
Non-dividing Cells V (cell viability percentages) (N2a-cl3 cells): 12%
Inhibition of Baseline PrP^5c (%) Dividing Cells ELISA ([1]; dividing cells): 97%

CC(=O)c1ccc(N2CCN(Cc3cccc(Cl)c3)CC2)cc1 [IND-7486]
Inhibition of Baseline PrP^5c (%) Non-dividing Cells ELISA [2]: 31%
Dividing Cells V (cell viability percentages) (N2a-cl3 cells): 6%
Non-dividing Cells V (cell viability percentages) (N2a-cl3 cells): 12%
Inhibition of Baseline PrP^5c (%) Dividing Cells ELISA ([1]; dividing cells): 84%

O=C(Nc1ccc(F)c(Cl)c1)Nc1ccc(Cl)c(Cl)c1 [IND-8255]
Inhibition of Baseline PrP^5c (%) Non-dividing Cells ELISA [2]: 61%
Dividing Cells V (cell viability percentages) (N2a-cl3 cells): 2%
Non-dividing Cells V (cell viability percentages) (N2a-cl3 cells): 11%
Inhibition of Baseline PrP^5c (%) Dividing Cells ELISA ([1]; dividing cells): 92%

O=C(Nc1ccccc1)Nc1ccc(F)c(Cl)c1 [IND-8314]
Inhibition of Baseline PrP^5c (%) Non-dividing Cells ELISA [2]: 56%
Dividing Cells V (cell viability percentages) (N2a-cl3 cells): 7%
Non-dividing Cells V (cell viability percentages) (N2a-cl3 cells): 17%
Inhibition of Baseline PrP^5c (%) Dividing Cells ELISA ([1]; dividing cells): 87%

CNCCc1c(-c2ccccc2)n(-c2ccccc2)c2ccccc12 [IND-10094]
Inhibition of Baseline PrP^5c (%) Non-dividing Cells ELISA [2]: 46%
Dividing Cells V (cell viability percentages) (N2a-cl3 cells): 19%
Non-dividing Cells V (cell viability percentages) (N2a-cl3 cells): 21%
Inhibition of Baseline PrP^5c (%) Dividing Cells ELISA ([1]; dividing cells): 81%

O=C(Nc1ccc(Cl)c(Cl)c1)NC(CC(=O)c1ccc([N+](=O)[O-])cc1)C(Cl)(Cl)Cl (stereo not drawn) [IND-10851]
Inhibition of Baseline PrP^5c (%) Non-dividing Cells ELISA [2]: 61%
Dividing Cells V (cell viability percentages) (N2a-cl3 cells): 15%
Non-dividing Cells V (cell viability percentages) (N2a-cl3 cells): 19%
Inhibition of Baseline PrP^5c (%) Dividing Cells ELISA ([1]; dividing cells): 83%

COc1cc(CN2CCN(c3cccc(C)c3C)CC2)cc(Br)c1O [IND-15461]
Inhibition of Baseline PrP^5c (%) Non-dividing Cells ELISA [2]: 48%
Non-dividing Cells V (cell viability percentages) (N2a-cl3 cells): 3%
Inhibition of Baseline PrP^5c (%) Dividing Cells ELISA ([1]; dividing cells): 22%

Cc1ccc2c(c1)c1c(n2CC(O)CO)C(=O)CCC1 (stereo not drawn) [IND-15474]
Inhibition of Baseline PrP^5c (%) Non-dividing Cells ELISA [2]: 39%
Dividing Cells V (cell viability percentages) (N2a-cl3 cells): 11%
Non-dividing Cells V (cell viability percentages) (N2a-cl3 cells): 9%
Inhibition of Baseline PrP^5c (%) Dividing Cells ELISA ([1]; dividing cells): 14%

COc1ccc(CN2CCN(c3ccc(C(C)=O)cc3)CC2)c(C)c1C [IND-17848]
Inhibition of Baseline PrP^5c (%) Non-dividing Cells ELISA [2]: 41%
Dividing Cells V (cell viability percentages) (N2a-cl3 cells): 1%
Non-dividing Cells V (cell viability percentages) (N2a-cl3 cells): 24%
Inhibition of Baseline PrP^5c (%) Dividing Cells ELISA ([1]; dividing cells): 95%

CC(=O)c1ccc(N2CCN(CC(C)CCC=C(C)C)CC2)cc1 (stereo not drawn) [IND-18721]
Inhibition of Baseline PrP^5c (%) Non-dividing Cells ELISA [2]: 55%
Non-dividing Cells V (cell viability percentages) (N2a-cl3 cells): 10%
Inhibition of Baseline PrP^5c (%) Dividing Cells ELISA ([1]; dividing cells): 78%

CC(=O)c1ccc(N2CCN(Cc3ccc(F)cc3F)CC2)cc1 [IND-18785]
Inhibition of Baseline PrP^5c (%) Non-dividing Cells ELISA [2]: 30%
Dividing Cells V (cell viability percentages) (N2a-cl3 cells): 30%
Non-dividing Cells V (cell viability percentages) (N2a-cl3 cells): 20%
Inhibition of Baseline PrP^5c (%) Dividing Cells ELISA ([1]; dividing cells): 85%

CC(=O)c1ccc(N2CCN(Cc3ccccc3Cl)CC2)cc1 [IND-19130]
Inhibition of Baseline PrP^5c (%) Non-dividing Cells ELISA [2]: 41%
Dividing Cells V (cell viability percentages) (N2a-cl3 cells): 5%
Non-dividing Cells V (cell viability percentages) (N2a-cl3 cells): 2%
Inhibition of Baseline PrP^5c (%) Dividing Cells ELISA ([1]; dividing cells): 86%

O=C(Nc1ccc(Cl)cc1)Nc1ccc(Cl)c(F)c1 [IND-19237]
Inhibition of Baseline PrP^5c (%) Non-dividing Cells ELISA [2]: 66%
Dividing Cells V (cell viability percentages) (N2a-cl3 cells): 2%
Non-dividing Cells V (cell viability percentages) (N2a-cl3 cells): 26%
Inhibition of Baseline PrP^5c (%) Dividing Cells ELISA ([1]; dividing cells): 25%

O=C(Nc1ccc(Cl)cc1)Nc1ccc(C(F)(F)F)cc1Cl [IND-19238]
Inhibition of Baseline PrP^5c (%) Non-dividing Cells ELISA [2]: 63%
Non-dividing Cells V (cell viability percentages) (N2a-cl3 cells): 9%
Inhibition of Baseline PrP^5c (%) Dividing Cells ELISA ([1]; dividing cells): 17%

CC(=O)c1ccc(N2CCN(Cc3c(C)n(C)n(-c4ccccc4)c3=O)CC2)cc1 [IND-19672]
Inhibition of Baseline PrP^5c (%) Non-dividing Cells ELISA [2]: 35%
Inhibition of Baseline PrP^5c (%) Dividing Cells ELISA ([1]; dividing cells): 64%

Clc1ccc(N2CCN(C3CCSC3)CC2)cc1 (stereo not drawn) [IND-19847]
Inhibition of Baseline PrP^5c (%) Non-dividing Cells ELISA [2]: 51%
Non-dividing Cells V (cell viability percentages) (N2a-cl3 cells): 3%
Inhibition of Baseline PrP^5c (%) Dividing Cells ELISA ([1]; dividing cells): 42%

COc1ccc2[nH]c3c(OC)ncnc3c2c1 [IND-22103]
Inhibition of Baseline PrP^5c (%) Non-dividing Cells ELISA [2]: 37%
Inhibition of Baseline PrP^5c (%) Dividing Cells ELISA ([1]; dividing cells): 81%

Nc1c(C(=O)Nc2cc(F)ccc2F)sc2nc(-c3ccncc3)ccc12 [IND-0024575]
EC50 ([1]; read-out: Antiprion activity EC50, thienopyridine analogs): 3.49 µM

COc1ccc2cc1Oc1ccc(cc1)C[C@H]1c3cc(c(OC)cc3CCN1C)Oc1c(OC)c(OC)cc3c1[C@H](C2)N(C)CC3 [Tetrandine]
Potency (μM) Cell Viability (N2a-cl3 cells): 5.009 µM
EC50 [1, 4]: 2.15 µM

Enoxaparin
Potency Cell Viability, mg/L (N2a-cl3 cells): >10 (mg/L)
